We go through ten molecules from US4003589A, “Carbonless copying paper” (Kureha Kagaku Kogyo Kabushiki Kaisha, priority 1970, dated 1977).

For data set [1] the following is noted: background; cited from earlier work.
A short description of another data set: Viscosity of the solvent. As to conditions: 100° F; Table 2. The data set is classed as physicochemical.
A further data set can be described thus: Color of the solvent. It counts as physicochemical. As to conditions: Table 2, solvent.
A short description of data set [2]: Acute toxicity (LD50, per oral and cutaneous). The data set is classed as in vivo, Strain ICR-JCL Mice. The conditions noted are these: ICR-JCL mice. From the text: Used as test animal are Strain ICR-JCL Mice (Nippon Clea Co., Ltd.)

Regarding `ClC1C(Cl)C(Cl)C(Cl)C(Cl)C1Cl` (centres unmarked) [BHC], the “accumulation in the bodies of many animals” value (“accumulation in the bodies” below) in data set [1] is on record as “accumulates”.

In the case of `Clc1ccc(C(c2ccc(Cl)cc2)C(Cl)(Cl)Cl)cc1` [DDT], in data set [1], the “accumulation in the bodies” value is “accumulates”.

In turn, butylnaphthalene [Butyl-naphthalene] gave a Viscosity in “Viscosity of the solvent” of 4.2 cst. Also, in “Color of the solvent”, the Color entry was “None”.

In the data set “Viscosity of the solvent”, diethylnaphthalene [Diethyl-] yielded a Viscosity of 3.6 cst. For the same molecule, the Color entry in the data set “Color of the solvent” is “None”.

On to “dimethylpropylnaphthalene [Dimethyl propyl]”, for which, in the data set “Viscosity of the solvent”, the Viscosity is recorded as 5.1 cst. Also, the Color result in “Color of the solvent” is “None”.

Consider dipropylnaphthalene, for which, in data set [2], the “LD50 Cutaneous” value was at least 30 mL/kg and the “LD50 Per Oral” value is 9.5 mL/kg. The Viscosity in the data set “Viscosity of the solvent” stood at 8.5 cst. Besides, in the data set “Color of the solvent”, the Color result is given as “None”.

Consider ethylpropylnaphthalene [Ethyl propyl], for which the Viscosity in “Viscosity of the solvent” is given as 5.2 cst. The Color result in “Color of the solvent” was “None”.

For the molecule methylbutylnaphthalene [Methyl Butyl], the Viscosity in “Viscosity of the solvent” came out at 5.0 cst. In addition, the Color entry in the data set “Color of the solvent” is on record as “None”.

methylpropylnaphthalene [Methyl propyl] yielded a Viscosity in “Viscosity of the solvent” of 4.0 cst. Further, in the data set “Color of the solvent”, the Color result is on record as “None”.

“polychlorobiphenyl [PCB, reference compound]”: in data set [2], the “LD50 Cutaneous” value stood at 1.25 mL/kg and the “LD50 Per Oral” value is 1.7 mL/kg. Further, the Color entry in “Color of the solvent” is recorded as “None”. In data set [1], the “accumulation in the bodies” value is on record as “accumulates” and the biodegradability result is on record as “low biodegradability”.
